From patent publication US10723702B2, “Photocrosslinking reagents and methods of use thereof” (Northwestern University, priority 2015, dated 2020)
“Also recorded” adds a separate entry of the source.

Assays:
[1] = test system: E6AP HECT domain; assay: Photocrosslinking of crosslinker-alkylated UbcH7 to E6AP HECT (365 nm, SDS-PAGE/western blot); type: biochemical; conditions: for Crosslinking of E6AP by UbcH7 CΔS F63A mutants or their Ub oxyesters bearing crosslinker: F63A negative control
Procedure: (§1) FIG. 4. […] UbcH7 CΔS E93C-2 or UbcH7 CΔS E93C-3 (10 μM final concentration) was incubated with E6AP-HECT (10 μM final concentration) in PBS(B) with 6 μM Tween-20 and 1 mM DTT. After keeping samples in the dark or irradiating at 365 nm for 10 minutes, they were quenched with 6× Laemmli buffer and β-mercaptoethanol (β-ME) and then boiled at 95° C. for 5 minutes. Covalently crosslinked protein complexes were resolved by SDS-PAGE and visualized by western blot and coomassie.
(§2) E6AP HECT was exchanged into crosslinker buffer with Zeba Spin Desalting Column and mixed (14 μM final concentration, 480 μg) with Tween-20 (6 μM), DTT (1 mM) in PBS(B) in a 1.5 mL tube. The reaction mixture was then taken to a darkened room where alkylated UbcH7 (14 μM, final concentration, 203 μg) was added (final volume of reaction mixture was 790 μL). The solution was mixed by pipetting and then transferred to four wells of a 96 well plate (Costar #3370). The plate was placed 3 cm below a UV lamp (UVP 3UV-38 3UV Lamp; 8 watt, 115V ˜60 Hz, 0.16 Amps) and irradiated at 365 nm for 10 minutes.
(§3) Following irradiation, the sample was mixed with Laemmli buffer and β-mercaptoethanol (230 mM final concentration) and boiled for five minutes. Crosslinking experiments in main text FIGS. 2, 3, and 4 were performed similarly with 20-50 μL total volume and with the indicated final concentrations of UbcH7 and E6AP.
(§4) Alkylation of UbcH7 cysteine mutants occurred readily by incubating 50-300 μM UbcH7 with 5 mM crosslinker 1 at room temperature for 90 minutes before removing free crosslinker with a desalting column. […] The UbcH7 CΔS-1 mutants (10 μM) were then mixed with the E6AP catalytic HECT domain (10 μM) and irradiated at 365 nm for 10 minutes in a 96-well plate. The reaction mixtures were then resolved with reducing SDS-PAGE and analyzed with anti-UbcH7 western blot. Photocrosslinking of UbcH7 to E6AP depends on the presence of both UV irradiation and E6AP (FIG. 6).

[2] = test system: UbcH7; assay: UbcH7 C86S-Ub oxyester formation by crosslinker-alkylated UbcH7; type: biochemical, human; conditions: oxyester formation and ubiquitin transfer retained
Procedure: (§5) FIGS. 5A-C. Crosslinker-modified UbcH7 charged with ubiquitin. UbcH7 C86S-Ub oxyester interacts with E6AP to transfer ubiquitin. (A.) Each alkylated mutant is competent to form an UbcH7 C86S-Ub oxyester except when the catalytic cysteine C86 is alkylated with crosslinker (lane 9). UbcH7 mutants alkylated by crosslinker 1 at the indicated residue (5 μM) were incubated with Ube1 (200 nM), ubiquitin (10 μM) in the dark at 37° C. for 15 hours in 25 mM HEPES pH 7.5, 50 mM NaCl, 10 mM MgCl2, 1 mM DTT with or without ATP (185 μM). Reactions were quenched with 6× Laemmli buffer with β-ME and incubated at room temperature for 5 minutes without boiling. The “*” marks a faint GST impurity. […] (C.) UbcH7 CΔS-Ub oxyester alkylated with crosslinker transfers ubiquitin to E6AP HECT (compare to FIG. 2B where E6AP HECT is a single band). […] UbcH7-Ub oxyester (5 μM) was incubated with or without E6AP-HECT (5 μM) in PBS(B) for 20 hours at room temperature. Reactions were quenched with 6× Laemmli buffer with β-ME and incubated at room temperature for 5 minutes without boiling.

[3] = test system: UbcH7 mutants with a single cysteine available; assay: Alkylation conversion of UbcH7 mono-cysteine mutants by crosslinker, estimated by LCMS; type: biochemical, human; conditions: all mono-cysteine UbcH7 mutants; intact protein mass spectrometry
Procedure: Crosslinker in DMF (500 mM, 5 mM final concentration) was added to a UbcH7 cysteine mutant (100-200 μM in UbcH7 storage buffer; 1% DMF v/v final concentration). The resulting reaction mixture was mixed by pipetting, covered with aluminum foil, and rocked at room temperature (crosslinkers 1), or 4° C. (crosslinker 2 and 3) for 90 minutes. Immediately following, the solution was desalted/exchanged into PBS(B) with a Zeba Spin Desalting Column (7 kDa MWCO Pierce), frozen in N2(l), and stored at −80° C. The extent of alklylation was analyzed by LC-MS.
as §4

[4] = test system: UbcH7/E6AP interaction; assay: Ubiquitin transfer from alkylated UbcH7 CΔS-Ub oxyester to E6AP HECT; type: biochemical; conditions: UbcH7-Ub oxyester 5 μM, E6AP-HECT 5 μM, PBS(B), 20 hours, room temperature
Procedure: as §5

[5] = Acid cleavage of crosslinker in photocrosslinked UbcH7-E6AP complex; type: physicochemical; conditions: pH 1, 55° C.
Procedure: FIGS. 12A-E. Mass spectrometry protocol to identify crosslinker modifications on E6AP. A. The band corresponding to the crosslinked UbcH7-E6AP complex was excised and loaded to the denaturing electroelution device. After eluting complexes from the gels, photocrosslinked protein complexes were cleaved under acidic conditions, trypsinized, and then analyzed. B. Crosslinker 2 is cleavable at pH 1, 55° C. I. UbcH7-E6AP crosslink. II. E6AP-HECT. C. By conducting the acidic cleavage of photocrosslinked proteins in Tris-Glycine-SDS buffer, we avoided hydrolysis of the peptide backbone. I. UbcH7-E6AP crosslink. II. E6AP-HECT. III. UbcH7. D. MS^2 identification of E6AP Lys^847 modified by crosslinker 2. y-ions are highlighted. The full spectrum and b-ion identification can be found in Spectral Appendix I. E. Residue map of the E6AP C-terminus indicating sites of crosslinker modification by UbcH7 CΔS E93C-2/3 or UbcH7 CΔS E93C Ub-2/3.
Electroelution fractions in Tris-Glycine-SDS buffer were treated with 1 M aqueous HCl (protein sample/1 M HCl 4:1 v/v) to obtain pH 1 in a 1.5 microcentrifuge tube (one gel's worth of elution per tube). […]
To identify the photocrosslinked sites of E6AP, a mass spectrometry protocol was developed. […] Finally, protein was precipitated with acetone, digested with trypsin, and then analyzed the peptides with an Orbitrap Velos.

[6] = molecular target: T1, E6AP HECT domain (Homo sapiens, UniProt Q05086); assay: Photocrosslinking of crosslinker-alkylated UbcH7 to E6AP HECT (365 nm, SDS-PAGE/western blot); type: biochemical; conditions: crosslinker on UbcH7 CΔS E93C 10 μM, E6AP-HECT 10 μM, 365 nm 10 minutes
T1 construct: Underlined residues remain from the GST tag and are not part; GST (N, cleaved yes); made in house; host or cells: E. coli Rosetta (DE3) pLysS (E6AP HECT); E. coli BL21 (UbcH7)
T1 sequence (Q05086 with tags, fused parts or gaps): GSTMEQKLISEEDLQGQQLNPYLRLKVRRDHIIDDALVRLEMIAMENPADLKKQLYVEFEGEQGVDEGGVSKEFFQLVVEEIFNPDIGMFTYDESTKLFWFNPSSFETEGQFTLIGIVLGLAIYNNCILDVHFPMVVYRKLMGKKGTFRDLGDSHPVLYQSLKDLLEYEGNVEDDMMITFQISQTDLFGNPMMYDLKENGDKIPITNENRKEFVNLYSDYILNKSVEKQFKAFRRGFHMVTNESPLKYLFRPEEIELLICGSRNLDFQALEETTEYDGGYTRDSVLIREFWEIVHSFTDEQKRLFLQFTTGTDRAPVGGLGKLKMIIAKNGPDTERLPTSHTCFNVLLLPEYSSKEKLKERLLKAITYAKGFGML
Procedure: as §1, §2, §3, §4

[7] = molecular target: T2, UbcH7 (Homo sapiens, UniProt P68036, C137S/C17S/C86S/E93C); assay: UbcH7 C86S-Ub oxyester formation by crosslinker-alkylated UbcH7; type: biochemical; conditions: crosslinker on UbcH7 CΔS E93C; Ube1, ubiquitin, ATP, 37° C., 15 hours
T2 construct: Underlined residues remain from the GST tag and are not part; GST (N, cleaved yes); made in house; host or cells: E. coli BL21 (UbcH7)
Procedure: as §5

[8] = molecular target: T3, E6AP-HECT (Homo sapiens, UniProt Q05086); conditions: read-out: Binding affinity Kd for E6AP-HECT; cited from earlier work
T3 sequence (Q05086 495-852 isoform Q05086-2 limits assumed): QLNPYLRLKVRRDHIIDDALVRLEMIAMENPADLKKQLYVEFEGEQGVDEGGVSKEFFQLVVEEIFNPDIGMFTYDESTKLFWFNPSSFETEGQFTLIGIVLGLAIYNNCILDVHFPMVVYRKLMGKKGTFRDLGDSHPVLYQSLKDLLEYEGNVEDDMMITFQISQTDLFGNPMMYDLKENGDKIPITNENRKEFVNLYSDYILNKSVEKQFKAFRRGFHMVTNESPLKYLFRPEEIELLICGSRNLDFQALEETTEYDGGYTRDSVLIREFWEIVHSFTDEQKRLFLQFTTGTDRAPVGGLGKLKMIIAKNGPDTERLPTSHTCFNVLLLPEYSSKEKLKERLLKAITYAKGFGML

T2 sequence (P68036 with tags, fused parts or gaps C17S/C86S/E93C/C137S): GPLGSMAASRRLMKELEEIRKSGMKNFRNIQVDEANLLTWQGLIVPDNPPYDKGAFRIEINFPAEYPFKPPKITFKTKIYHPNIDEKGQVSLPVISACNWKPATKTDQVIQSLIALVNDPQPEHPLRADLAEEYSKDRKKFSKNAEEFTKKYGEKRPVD

Compound	Crosslinking of E6AP by UbcH7 CΔS F63A mutants or their Ub oxyesters bearing crosslinker [1]	Crosslinking efficiency by crosslinker position on UbcH7 ([1]; crosslinker placed at UbcH7 CΔS E93C or catalytic cysteine Cys86, 10 μM each, 365 nm 10 minutes)	Effect of mutagenesis and alkylation with crosslinker on E2 enzyme structure [2]	Labeling (mono-alkylation) of UbcH7 cysteine mutants, in words [3]	Interference of crosslinker with UbcH7/E6AP interaction (ubiquitin transfer to E6AP HECT) [4]	Cleavage of crosslinker under acidic conditions [5]	Photocrosslinking efficiency [6]	Effect of crosslinker on efficiency of UbcH7-Ub oxyester formation [7]	Kd [8]
CC1(CCNC(=O)CI)N=N1 [Crosslinker 1]	did not crosslink E6AP	most efficient crosslinking	did not compromise the E2 enzyme structure	quantitatively labeled every UbcH7 cysteine mutant; also recorded: near quantitative mono-alkylation	does not interfere with the UbcH7/E6AP interaction				
CC1(CCOS(=O)(=O)NC(=O)CI)N=N1 [Crosslinker 2]	did not crosslink E6AP		did not compromise the E2 enzyme structure	not as reactive with some of the mutants		cleavable	equal photocrosslinking efficiency	does not affect the efficiency of UbcH7-Ub oxyester formation	
[2H]C([2H])([2H])C1(C([2H])([2H])COS(=O)(=O)NC(=O)CI)N=N1 [Crosslinker 3]			did not compromise the E2 enzyme structure	not as reactive with some of the mutants			equal photocrosslinking efficiency		
UbcH7: E2 enzyme upstream of E6AP (SEQ ID NO: 2)									5 µM
